Assay results published in patent US20230286930A1, “N -SUBSTITUTED 4-(1,3-ARYLOXAZOLO-2-YL)PHENYL COMPOUNDS FOR THE TREATMENT AND PROPHYLAXIS OF HEPATITIS B VIRUS INFECTION” (Hoffmann-La Roche Inc., priority 2020, published 2023).

Assays:
[1] = system: HBeAg; assay: PHH natural infection assay, HBeAg (alphalisa); assay type: cell-based, HBV; details: Hepatitis B virus, read-out: HBeAg IC50
Description: (§1) Detailed procedures regarding primary human hepatocyte (PHH) HBV natural infection assay are described as below. One tube of frozen PHH (10 million cells) is thawed in 37° C. water bath and then transferred to 20 mL of PHH thawing medium (Sigma, InVitroGRO HT Medium, Cat. S03319) with gently mixing. The cells were then centrifuged at […] for 5 min, the supernatant was discarded and the tube was refilled with 25 mL of PHH plating medium (Sigma, InVitroGRO CP Medium, Cat. S03317). The tube was shaken very gently to re-suspend all cells, and then 50 μL of cells were transferred to each well 384-well collagen I coated plate with appropriate liquid handling equipment, e.g. Integra VIAFLO384 or Agilent Bravo. The cells were then cultured for 24 hours in a cell incubator. For HBV infection, after PHH attachment on the culture plate, the plating medium was removed and replenished with PHH culture medium containing HBV virus. The PHH culture medium was prepared with Dulbecco's Modified Eagle Medium (DMEM)/F12 (1:1 in volume ratio) containing 10% fetal bovine serum (Gibco, Cat. 10099141), 5 ng/mL human epidermal growth factor (Gibco, Cat.PHG0311L), 20 ng/mL dexamethasone (Sigma, Cat.D4902-100 mg), 250 ng/mL human recombinant insulin (Gibco, Cat.41400045) and 100 U/mL penicillin. HBV virus at 200 genome equivalent (GE) per cell with 4% PEG8000 (Sigma, Cat.P1458) containing culture medium were added to the PHH culture medium for infection. The cells were then cultured for 24 hours in cell incubator. Then the cell culture supernatant was removed. The HBV-infected PHH were cultured with sandwich culture method with PHH culture medium containing 1% DMSO and 0.25 mg/mL matrix gel for 72 hours. The supernatant was then refreshed with PHH culture medium containing different concentrations of testing compounds for two times with 72-hour interval. At the end of treatment, the supernatant was collected for viral markers measurements, including HBsAg, HBeAg, HBV DNA and cytotoxicity. HBsAg and HBeAg were detected using alphalisa method using their specific antibodies. For HBV DNA detection, HBV DNA Quantitative Fluorescence Diagnostic Kit (Sansure Biotech Inc.) was used following the manufacture's protocol. Cytotoxicity was determined using Cell Counting Kit-8 (CCK8, Dojindo Molecular Technologies, Inc.).
(§2) The compounds of the present invention were tested for their capacity to inhibit HBsAg and HBeAg as described herein.

[2] = system: HBsAg; assay: PHH natural infection assay, HBsAg (alphalisa); assay type: cell-based, HBV; details: Hepatitis B virus, read-out: HBsAg IC50
Description: as §1, §2

[3] = PHH natural infection assay, cytotoxicity (Cell Counting Kit-8); assay type: cell-based; details: human
Description: as §1

| Compound | IC50 [1] [nM] | IC50 [2] [nM] | CC50 at 144 h [3] [nM] |
| --- | --- | --- | --- |
| O=C(Nc1ccc(-c2nc3cccc(F)c3o2)cc1)C1CCC1 [Example 25, N-[4-(7-fluoro-1,3-benzoxazol-2-yl)phenyl]cyclobutanecarboxamide] | 720 | 950 | > 100000 |
| CC(=O)OC1(C(=O)Nc2ccc(-c3nc4cccc(F)c4o3)cc2)CCOCC1 [Example 26, [4-[[4-(7-fluoro-1,3-benzoxazol-2-yl)phenyl]carbamoyl]tetrahydropyran-4-yl] acetate] | 840 | 1080 | 73500 |
| O=C(Nc1ccc(-c2nc3cccc(F)c3o2)cc1)C1CC1(F)F (stereo not drawn) [Example 27, 2,2-difluoro-N-[4-(7-fluoro-1,3-benzoxazol-2-yl)phenyl]cyclopropanecarboxamide] | 710 | 1100 | > 100000 |
| O=C(Nc1ccc(-c2nc3cccc(F)c3o2)cc1)C1CCOCC1 [Example 28, N-[4-(7-fluoro-1,3-benzoxazol-2-yl)phenyl]tetrahydropyran-4-carboxamide] | 1000 | 960 | > 100000 |
| O=C(Nc1ccc(-c2nc3cccc(F)c3o2)cc1)C1COC1 [Example 29, N-[4-(7-fluoro-1,3-benzoxazol-2-yl)phenyl]oxetane-3-carboxamide] | 1450 | 1380 | > 100000 |
| O=C(Nc1ccc(-c2nc3cccc(F)c3o2)cc1)C1CCSCC1 [Example 30, N-[4-(7-fluoro-1,3-benzoxazol-2-yl)phenyl]tetrahydrothiopyran-4-carboxamide] | 1470 | 1490 | > 100000 |
| O=C(Nc1ccc(-c2nc3cccc(F)c3o2)cc1)C1CS(=O)(=O)C1 [Example 31, N-[4-(7-fluoro-1,3-benzoxazol-2-yl)phenyl]-1,1-dioxo-thietane-3-carboxamide] | 2290 | 1500 | > 100000 |
| CC1(C(=O)Nc2ccc(-c3nc4cccc(F)c4o3)cc2)CC1 [Example 32, N-[4-(7-fluoro-1,3-benzoxazol-2-yl)phenyl]-1-methyl-cyclopropanecarboxamide] | 1160 | 1520 | > 100000 |
| O=C(Nc1ccc(-c2nc3cccc(F)c3o2)cc1)C1C2COCC21 (stereo not drawn) [Example 33, N-[4-(7-fluoro-1,3-benzoxazol-2-yl)phenyl]-3-oxabicyclo[3.1.0]hexane-6-carboxamide] | 1090 | 1580 | > 100000 |
| CC1(C(=O)Nc2ccc(-c3nc4cccc(F)c4o3)cc2)CCC1 [Example 34, N-[4-(7-fluoro-1,3-benzoxazol-2-yl)phenyl]-1-methyl-cyclobutanecarboxamide] | 1760 | 1610 | > 100000 |
| CC1(C(=O)Nc2ccc(-c3nc4cccc(F)c4o3)cc2)CCCO1 (stereo not drawn) [Example 35, N-[4-(7-fluoro-1,3-benzoxazol-2-yl)phenyl]-2-methyl-tetrahydrofuran-2-carboxamide] | 1850 | 1670 | > 100000 |
| CC(=O)OC1(C(=O)Nc2ccc(-c3nc4cccc(F)c4o3)cc2)CC1 [Example 36, [1-[[4-(7-fluoro-1,3-benzoxazol-2-yl)phenyl]carbamoyl]cyclopropyl] acetate] | 2610 | 2740 | > 100000 |
| O=C(Nc1ccc(-c2nc3cccc(F)c3o2)cc1)OC1CCOC1 (stereo not drawn) [Example 37, tetrahydrofuran-3-yl N-[4-(7-fluoro-1,3-benzoxazol-2-yl)phenyl]carbamate] | 4300 | 3430 | > 100000 |
| COC(=O)C12CC(C(=O)Nc3ccc(-c4nc5cccc(F)c5o4)cc3)(C1)C2 [Example 38, methyl 3-[[4-(7-fluoro-1,3-benzoxazol-2-yl)phenyl]carbamoyl]bicyclo[1.1.1]pentane-1-carboxylate] | 3940 | 3740 | > 100000 |
| CCC1(C(=O)Nc2ccc(-c3nc4cccc(F)c4o3)cc2)COC1 [Example 39, 3-ethyl-N-[4-(7-fluoro-1,3-benzoxazol-2-yl)phenyl]oxetane-3-carboxamide] | 9010 | 6290 | > 100000 |
| O=C(Nc1ccc(-c2nc3c(F)cccc3o2)cc1)c1ncco1 [Example 40, N-[4-(4-fluoro-1,3-benzoxazol-2-yl)phenyl]oxazole-2-carboxamide] | 330 | 170 | > 100000 |
| Cc1cnc(C(=O)Nc2ccc(-c3nc4c(F)cccc4o3)cc2)o1 [Example 41, N-[4-(4-fluoro-1,3-benzoxazol-2-yl)phenyl]-5-methyl-oxazole-2-carboxamide] | 520 | 420 | > 100000 |
| O=C(Nc1ccc(-c2nc3c(F)cccc3o2)cc1)c1ccccn1 [Example 42, N-[4-(4-fluoro-1,3-benzoxazol-2-yl)phenyl]pyridine-2-carboxamide] | 520 | 460 | > 100000 |
| Cc1coc(C(=O)Nc2ccc(-c3nc4c(F)cccc4o3)cc2)n1 [Example 43, N-[4-(4-fluoro-1,3-benzoxazol-2-yl)phenyl]-4-methyl-oxazole-2-carboxamide] | 1070 | 1090 | > 100000 |
| O=C(Nc1ccc(-c2nc3c(F)cccc3o2)cc1)c1nccs1 [Example 44, N-[4-(4-fluoro-1,3-benzoxazol-2-yl)phenyl]thiazole-2-carboxamide] | 1280 | 1330 | > 100000 |
| Cc1ncc(C(=O)Nc2ccc(-c3nc4c(F)cccc4o3)cc2)o1 [Example 45, N-[4-(4-fluoro-1,3-benzoxazol-2-yl)phenyl]-2-methyl-oxazole-5-carboxamide] | 1350 | 1360 | > 100000 |
| O=C(Nc1ccc(-c2nc3c(F)cccc3o2)cc1)c1cccnc1 [Example 46, N-[4-(4-fluoro-1,3-benzoxazol-2-yl)phenyl]pyridine-3-carboxamide] | 4530 | 2230 | > 100000 |
| O=C(Nc1ccc(-c2nc3c(F)cccc3o2)cc1)C12CC(C1)C2 [Example 47, N-[4-(4-fluoro-1,3-benzoxazol-2-yl)phenyl]bicyclo[1.1.1]pentane-1-carboxamide] | 1200 | 1020 | > 100000 |
| O=C(Nc1ccc(-c2nc3c(F)cccc3o2)cc1)C12CC(F)(C1)C2 [Example 48, 3-fluoro-N-[4-(4-fluoro-1,3-benzoxazol-2-yl)phenyl]bicyclo[1.1.1]pentane-1-carboxamide] | 970 | 760 | > 100000 |
| CC(C)(O)C(=O)Nc1ccc(-c2nc3c(F)cccc3o2)cc1 [Example 49, N-[4-(4-fluoro-1,3-benzoxazol-2-yl)phenyl]-2-hydroxy-2-methyl-propanamide] | 530 | 620 | > 100000 |
| O=C(Nc1ccc(-c2nc3c(F)cccc3o2)cc1)C1CCS(=O)(=O)C1 (stereo not drawn) [Example 50, N-[4-(4-fluoro-1,3-benzoxazol-2-yl)phenyl]-1,1-dioxo-thiolane-3-carboxamide] | 1510 | 1200 | > 100000 |
| CC1(C(=O)Nc2ccc(-c3nc4c(F)cccc4o3)cc2)COC1 [Example 51, N-[4-(4-fluoro-1,3-benzoxazol-2-yl)phenyl]-3-methyl-oxetane-3-carboxamide] | 1230 | 1160 | > 100000 |
| CC(O)C(=O)Nc1ccc(-c2nc3c(F)cccc3o2)cc1 (stereo not drawn) [Example 52, N-[4-(4-fluoro-1,3-benzoxazol-2-yl)phenyl]-2-hydroxy-propanamide] | 1780 | 1720 | > 100000 |
| CC(C)(C)C(=O)Nc1ccc(-c2nc3c(F)cccc3o2)cc1 [Example 53, N-[4-(4-fluoro-1,3-benzoxazol-2-yl)phenyl]-2,2-dimethyl-propanamide] | 1170 | 1430 | > 100000 |
| O=C(Nc1ccc(-c2nc3c(F)cccc3o2)cc1)C1CCOC1 (stereo not drawn) [Example 54, N-[4-(4-fluoro-1,3-benzoxazol-2-yl)phenyl]tetrahydrofuran-3-carboxamide] | 2830 | 2680 | > 100000 |
